In patent publication US11351264B2, “PAR2 mimetic peptides and uses thereof” (ARIZONA BOARD OF REGENTS ON BEHALF OF THE UNIVERSITY OF …, priority 2016, dated 2022):
Primed or numbered codes have the meaning given here. *: point of attachment. 2at = 2-aminothiazol-4-yl N-terminal cap, Nc1nc(*)cs1; Hdc = hexadecyl (lipid tether group); PEG3′ = not defined here

What was measured:
Type in all cases: cell-based
PAR2 [1] = biological target: T1, PAR2 (Homo sapiens, UniProt P55085); test: RTCA screen (xCELLigence in vitro physiological signalling assay)
T1 sequence (P55085 26-397): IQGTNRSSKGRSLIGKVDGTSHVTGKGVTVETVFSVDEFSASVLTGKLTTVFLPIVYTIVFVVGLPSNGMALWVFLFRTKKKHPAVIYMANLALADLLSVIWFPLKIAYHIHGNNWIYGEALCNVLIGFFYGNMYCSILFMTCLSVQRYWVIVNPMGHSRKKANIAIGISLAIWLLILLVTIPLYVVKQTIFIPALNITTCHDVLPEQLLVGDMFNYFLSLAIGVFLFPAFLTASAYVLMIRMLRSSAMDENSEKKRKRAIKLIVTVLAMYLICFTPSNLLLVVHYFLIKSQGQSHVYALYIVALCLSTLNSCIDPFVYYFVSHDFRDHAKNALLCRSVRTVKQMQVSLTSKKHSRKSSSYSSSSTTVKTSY
Text: FIGS. 5A-B show in vitro physiological PAR2 agonist screening using xCELLigence. […] This compound was a biased-signalling antagonist in that it had no effect on mitogen activated protein kinase (MAPK) signalling, the other major signalling pathway activated via PAR2. […] Thus, experiments screened a series of potential PAR2 ligands with a heterocycle serine substitute followed by four amino acids (XXGR) and the PEG3-Hdc lipid tether. […], C595 and […] are novel pharmacological tools that can be used to evaluate the physiological consequences of PAR2 full and biased ligand signalling.

PAR2 [2] = biological target: T1, PAR2; test: PAR2 Ca2+ signalling in cultured human bronchial epithelial cells (16HBE14o-); design: endogenous in cells; host or cells: 16HBE14o- human bronchial epithelial cells; conditions: for Block of PAR2 Ca2+ signalling elicited via protease activation: Alternaria alternata filtrates; for Block of PAR2 Ca2+ signalling elicited via protease activation / Block of PAR2 Ca2+ signalling elicited via peptidomimetics: 16HBE14o- cells, C608 at nanomolar concentrations; for Block of PAR2 Ca2+ signalling elicited via peptidomimetics: activation by 2-at-LIGRL-NH2
Text: (§1) This compound was a biased-signalling antagonist in that it had no effect on mitogen activated protein kinase (MAPK) signalling, the other major signalling pathway activated via PAR2. […] C595 is closely related to the previously described potent and specific PAR2 agonist, 2-at-LIGR (SEQ ID NO: 1)-PEG3-Hdc. Thus, experiments screened a series of potential PAR2 ligands with a heterocycle serine substitute followed by four amino acids (XXGR) and the PEG3-Hdc lipid tether. […] C562, C595 and C608 are novel pharmacological tools that can be used to evaluate the physiological consequences of PAR2 full and biased ligand signalling.

PAR2 [3] = biological target: T1, PAR2; test: Mitogen activated protein kinase (MAPK) signalling activated via PAR2; conditions: for Effect on MAPK signalling (as antagonist): C608 at nanomolar concentrations
Text: as §1

Substance | Compound Summary as Determined by RTCA Screen (PAR2 [1]) | other results
2at-LKGR-PEG3-Hdc [Compound 11] | Full PAR2 Agonist | –
2at-penicillamine-IGR-PEG3-Hdc [Compound 22] | No Activity at PAR2 Detected | –
2at-VIGR-PEG3-Hdc [Compound 17] | PAR2 Agonist | –
2at-SKGRS-PEG3-Hdc (2at-SKGRS-{PEG3′-Hdc}) [Compound 5] | PAR2 Antagonist | Block of PAR2 Ca2+ signalling elicited via protease activation (PAR2 [2]): blocks PAR2 Ca^2+ signalling; Block of PAR2 Ca2+ signalling elicited via peptidomimetics (PAR2 [2]): blocks PAR2 Ca^2+ signalling; Effect on MAPK signalling (as antagonist) (PAR2 [3]): no effect
2at-TIGR-PEG3-Hdc (2at-TIGR-{PEG3′-Hdc}) [Compound 14] | PAR2 Agonist and Antagonist | RTCA signalling profile (agonist/antagonist) (PAR2 [1]; listed as C608): Partial RTCA agonist and potent anatagonist (low concentrations); Ca2+ signalling profile (agonist/antagonist) (PAR2 [2]): Partial Ca^2+ signalling agonist and potent antagonist (low concentrations); Block of PAR2 Ca2+ signalling elicited via protease activation (PAR2 [2]): blocked PAR2-dependent Ca^2+ signalling; Block of PAR2 Ca2+ signalling elicited via peptidomimetics (PAR2 [2]): blocked PAR2-dependent Ca^2+ signalling; MAPK pathway profile (agonist/antagonist) (PAR2 [3]): Full MAPK agonist; Effect on MAPK signalling (as antagonist) (PAR2 [3]): without effects on MAPK signalling
2at-SRGR-PEG3-Hdc [Compound 7] | No Activity at PAR2 Detected | –
2at-4thiazolamine-IGR-PEG3-Hdc [Compound 23] | No Activity at PAR2 Detected | –
2at-HIGR-PEG3-Hdc [Compound 16] | PAR2 Agonist | –
2at-(dL)IGR-PEG3-Hdc [Compound 24] | No Activity at PAR2 Detected | –
2at-SHGR-PEG3-Hdc [Compound 8] | No Activity at PAR2 Detected | –
2at-(dT)IGR-PEG3-Hdc [Compound 26] | No Activity at PAR2 Detected | –
2at-hydroxyproline-IGR-PEG3-Hdc [Compound 20] | No Activity at PAR2 Detected | –
2at-(dl)IGR-PEG3-Hdc [Compound 25] | No Activity at PAR2 Detected | –
2at-SIGR-PEG3-Hdc [Compound 13] | No Activity at PAR2 Detected | –
2at-SKGR-PEG3-Hdc (2at-SKGR-{PEG3′-Hdc}) [Compound 6] | – | Antagonistic activity against peptidomimetic activation (PAR2 [1]; xCELLigence in vitro physiological signalling assay): maintained antagonistic activity
2at-homoserine-IGR-PEG3-Hdc [Compound 21] | PAR2 Agonist | –
2at-LIGR-PEG3-Hdc [Compound 12] | Full PAR2 Agonist | –
2at-DIGR-PEG3-Hdc [Compound 15] | No Activity at PAR2 Detected | –
2at-TKGR-PEG3-Hdc [Compound 10] | No Activity at PAR2 Detected | –
